Measured values as given in ChEMBL document CHEMBL4513137, “CO-ADD screening of University of Manchester (UK) compounds”.
In brackets after ≈: the same amount, converted by molar mass.

Columns and labels:
Pseudomonas aeruginosa = assay: microbe, parasite or virus in culture; conditions: ATCC 27853, 18 h, ASSAY_TEST Inhibition of Bacterial Growth, detection method Absorption (OD600), MEDIA CAMHB, plate type 384well, NBS, CORNING #3640
Description: Antibacterial activity against Pseudomonas aeruginosa ATCC 27853 (CO-ADD:GN_042); MIC in CAMBH media using NBS plates, by OD(600)

Klebsiella pneumoniae = assay: microbe, parasite or virus in culture; conditions: ATCC 700603, 18 h, ASSAY_TEST Inhibition of Bacterial Growth, detection method Absorption (OD600), MEDIA CAMHB, plate type 384well, NBS, CORNING #3640
Description: Antibacterial activity against Klebsiella pneumoniae MDR ATCC 70063 (CO-ADD:GN_003); MIC in CAMBH media using NBS plates, by OD(600)

HEK293 = assay: cells; assay type: functional; conditions: Homo sapiens, ATCC CRL1573, HEK293; ASSAY_TEST Inhibition of Cell Viability; detection method Resazurin; Fluorescence (ex560/em590); MEDIA DMEM with 10% FBS; plate type 384well; TC; CORNING #3712; time 18 hr
Escherichia coli = assay: microbe, parasite or virus in culture; conditions: ATCC 25922, 18 h, ASSAY_TEST Inhibition of Bacterial Growth, detection method Absorption (OD600), MEDIA CAMHB, plate type 384well, NBS, CORNING #3640
Description: Antibacterial activity against Escherichia coli ATCC 25922 (CO-ADD:GN_001); MIC in CAMBH media using NBS plates, by OD(600)

Staphylococcus aureus = assay: microbe, parasite or virus in culture; conditions: ATCC 43300, 18 h, ASSAY_TEST Inhibition of Bacterial Growth, detection method Absorption (OD600), MEDIA CAMHB, plate type 384well, NBS, CORNING #3640
Description: Antibacterial activity against Staphylococcus aureus MRSA ATCC 43300 (CO-ADD:GP_020); MIC in CAMBH media, using NBS plates, by OD(600)

Candida albicans = assay: microbe, parasite or virus in culture; conditions: ATCC 90028, ASSAY_TEST Inhibition of Fungal Growth, detection method Absorption (OD530), plate type 384well, NBS, CORNING #3640
Description: Antifungal activity against Candida albicans ATCC 90028 (CO-ADD:FG_001); MIC in YNB media using NBS plates, by OD630

Acinetobacter baumannii = assay: microbe, parasite or virus in culture; conditions: ATCC 19606, 18 h, ASSAY_TEST Inhibition of Bacterial Growth, detection method Absorption (OD600), MEDIA CAMHB, plate type 384well, NBS, CORNING #3640
Description: Antibacterial activity against Acinetobacter baumannii ATCC 19606 (CO-ADD:GN_034); MIC in CAMBH media using NBS plates, by OD600

Description for Cryptococcus neoformans: Antifungal activity against Cryptococcus neoformans H99 ATCC 208821 (CO-ADD:FG_002); MIC in YNB media using NBS plates, by Resazurin OD(600-570)

Structure (SMILES) | MIC (Pseudomonas aeruginosa) [µg/mL] | MIC (Klebsiella pneumoniae) [µg/mL] | CC50 (HEK293) [µg/mL] | MIC (Escherichia coli) [µg/mL] | MIC (Staphylococcus aureus) [µg/mL] | MIC (Candida albicans) [µg/mL] | MIC (Acinetobacter baumannii) [µg/mL] | MIC (Cryptococcus neoformans) [µg/mL]
O=[N+]([O-])c1ccccc1-c1ccccc1N(Cc1ccccc1)c1ccccc1 | > 32 | > 32 | 8.14 (≈ 21.4 µM) | > 32 | > 32 | 32 (≈ 84.1 µM) | > 32 | > 32
Cc1ccccc1Nc1ccccc1-c1ccccc1[N+](=O)[O-] | > 32 | > 32 | 1.95 (≈ 6.41 µM) | > 32 | 4 (≈ 13.1 µM) | 8 (≈ 26.3 µM) | > 32 | 32 (≈ 105 µM)
O=[N+]([O-])c1ccccc1-c1ccccc1Nc1ccccc1 | > 32 | > 32 | 2.15 (≈ 7.41 µM) | > 32 | 16 (≈ 55.1 µM) | 8 (≈ 27.6 µM) | > 32 | 16 (≈ 55.1 µM)
Cc1cc(C)c(Nc2ccccc2-c2ccccc2[N+](=O)[O-])c(C)c1 | > 32 | > 32 | 13.1 (≈ 39.4 µM) | > 32 | > 32 | 16 (≈ 48.1 µM) | > 32 | > 32
Cc1cc(C)c(Nc2ccccc2-c2ccc([N+](=O)[O-])cc2[N+](=O)[O-])c(C)c1 | > 32 | > 32 | 15.7 (≈ 41.6 µM) | > 32 | 32 (≈ 84.8 µM) | 4 (≈ 10.6 µM) | > 32 | > 32
C=C[C@]1(C)C[C@@H](OC(=O)CO)[C@]2(C)[C@H](C)CC[C@]3(CCC(=O)[C@H]32)[C@@H](C)[C@@H]1O [PLEUROMULIN] | > 32 | > 32 | > 32 | > 32 | 2 (≈ 5.28 µM) | > 32 | > 32 | > 32
